Data from patent US9199983B2, “3-aryl-6-aryl-[1,2,4]triazolo[4,3-α]pyridines as inhibitors of cell proliferation and the use thereof” (priority 2010, dated 2015).
Where a name gives a salt, the structure may show the parent alone.

How the values were obtained:
[1] = test system: mouse melanoma cell line B16F10; experiment: MTT cancer cell cytotoxicity assay, B16F10; assay type: cell-based; details: Mus musculus, B16-F10, B16F10 cells, 48-72 h
Experimental: (§1) Identification of 3-(2-methoxyphenyl)-6-(4-methoxyphenyl)-[1,2,4]triazolo[4,3-a]pyridine and analogs as inhibitors of cell proliferation that were evaluated with standard MTT cancer cell cytotoxicity assay (IC50)
(§2) Human lung cancer cell line A549, breast cancer cell line T47D, liver cancer cell lines HepG2 and SMMC7721 as well as a mouse melanoma cell line B16F10 were used in the study. The cells were cultured in corresponding growth media recommended by American Type Culture Collection (ATCC) with the supplementation of penicillin G (100 U/ml)/streptomycin (100 µg/ml), and 10% fetal bovine serum (Hangzhou Sijiqing Biological Engineering Materials, Co., Ltd. China) at 37° C. in a humidified atmosphere containing 5% CO2. Cells at about 80% confluency were harvested by trypsinization. Cells were centrifuged, re-suspended in fresh growth media and counted. Corresponding numbers of cells were seeded to 96-well cell culture plates (HepG2 cell, T-47D and A549 cells at 3000 cells/well, SMMC-7721 cells at 5000 cells/well and B16F10 cells at 2000 cells/well) in a total volume of […]. Cells were incubated in CO2 incubator over night to allow the cells to attach. In next day, […] of medium containing testing (from 10 μM to 1 nM) or reference compounds was added to each well of the cells. Media without compound were used as 100% control. Cells were treated with each concentration of compounds in triplicates to ensure data accuracy. Cells were incubated with compounds in CO2 incubator for an additional 48-72 h at 37° C. After incubation, cells were removed from the CO2 incubator and […] of 5 mg/ml MTT (3-(4,5-dimethylthiazole-2-yl)-2,5-diphenyltetrazoliumbromide, Sigma) solution in PBS was added to each well. Cells were returned to CO2 incubator and incubated for additional 4 h. After the incubation, media were removed by aspiration and […] DMSO was added to each well. Plates were sealed with aluminum foil and shaked mildly on an orbital shaker for 10 min at room temperature. The absorption was measured at 550 nm with a plate reader (Varioskan Flash, Thermo Fisher Scientific) with 660 nm reading used as background control. The relative absorbance readings were calculated by subtracting readings at 660 nm from that at 550 nm. The relative absorbance was plotted again the concentrations of the testing compounds and the plots were fitted with a one-site lg(IC50) equation using Prism 5 software (GraphPad Software, Inc). The equation used in the curve fitting is as follows: relative absorbance reading=background reading+(maximal reading−brackground reading)/(1+10 ^(compound concentration-log IC50)). The background reading used in the calculation was obtained with 100% cell death using a reference anticancer drug, whereas the maximal reading was obtained in the well with no added compound. The IC50 value calculated from the equation represents the cytotoxic potency of a particular compound.

[2] = test system: breast cancer cell line T47D; experiment: MTT cancer cell cytotoxicity assay, T47D; assay type: cell-based, human; details: Homo sapiens, T47D cells, 48-72 h
Experimental: as §1, §2

[3] = test system: liver cancer cell line HepG2; experiment: MTT cancer cell cytotoxicity assay, HepG2; assay type: cell-based, human; details: Homo sapiens, HepG2 cells, 48-72 h
Experimental: as §1, §2

[4] = test system: liver cancer cell line SMMC7721; experiment: MTT cancer cell cytotoxicity assay, SMMC7721; assay type: cell-based, human; details: Homo sapiens, SMMC-7721, SMMC7721 cells, 48-72 h
Experimental: as §1, §2

[5] = test system: Human lung cancer cell line A549; experiment: MTT cancer cell cytotoxicity assay, A549; assay type: cell-based; details: Homo sapiens, A549 cells, 48-72 h
Experimental: as §1, §2

Row | SMILES | IC50 [1] | IC50 [2] | IC50 [3] | IC50 [4] | IC50 [5]
1 | CCc1ccc(-c2ccc3nnc(-c4ccccc4OC)n3c2)cc1 [Example 7, 6-(4-Ethylphenyl)-3-(2-methoxyphenyl)-[1,2,4]triazolo[4,3-a]pyridine] | 220 nM | 158 nM | 136 nM | 59 nM | 217 nM
2 | COc1ccccc1-c1ccc2nnc(-c3ccccc3OC)n2c1 [Example 3, 3,6-Bis(2-methoxyphenyl)-[1,2,4]triazolo[4,3-a]pyridine] | > 10000 nM | > 10000 nM | > 10000 nM | > 10000 nM | > 10000 nM
3 | COc1ccccc1-c1nnc2ccc(-c3ccc(OC(C)C)cc3)cn12 [Example 6, 6-(4-Isopropoxyphenyl)-3-(2-methoxyphenyl)-[1,2,4]triazolo[4,3-a]pyridine] | 591 nM | 697 nM | 1160 nM | 535 nM | 1060 nM
4 | CNc1ccc(-c2ccc3nnc(-c4ccc(C)cc4OC)n3c2)cc1 [Example 92, 6-(4-Methylaminophenyl)-3-(4-methyl-2-methoxyphenyl)-[1,2,4]triazolo[4,3-a]pyridine] | 7.7 nM | 8.8 nM | 23 nM | 23 nM | 11 nM
5 | COc1ccccc1-c1nnc2ccc(-c3ccccc3)cn12 [Example 24, 3-(2-Methoxyphenyl)-6-phenyl-[1,2,4]triazolo[4,3-a]pyridine] | > 10000 nM | > 10000 nM | > 10000 nM | > 10000 nM | > 10000 nM
6 | COc1ccc(-c2ccc3nnc(-c4ccc(C(F)(F)F)cc4OC)n3c2)cc1 [Example 60, 3-(2-Methoxy-4-trifluoromethylphenyl)-6-(4-methoxyphenyl)-[1,2,4]triazolo[4,3-a]pyridine] | 37 nM | 68 nM | 41 nM | 18 nM | 91 nM
7 | COc1ccccc1-c1nnc2ccc(-c3ccc(OC)c([N+](=O)[O-])c3)cn12 [Example 40, 6-(4-Methoxy-3-nitrophenyl)-3-(2-methoxyphenyl)-[1,2,4]triazolo[4,3-a]pyridine] | > 10000 nM | 896 nM | 2460 nM | 72 nM | 2660 nM
8 | COc1cccc(-c2ccc3nnc(-c4ccccc4OC)n3c2)c1 [Example 2, 3-(2-Methoxyphenyl)-6-(3-methoxyphenyl)-[1,2,4]triazolo[4,3-a]pyridine] | 152 nM | 184 nM | 189 nM | 79 nM | 252 nM
9 | CCCCCCOc1ccc(-c2ccc3nnc(-c4ccccc4OC)n3c2)cc1 [Example 34, 6-(4-Hexyloxyphenyl)-3-(2-methoxyphenyl)-[1,2,4]triazolo[4,3-a]pyridine] | > 10000 nM | > 10000 nM | > 10000 nM | > 10000 nM | > 10000 nM
10 | COc1cc(C)ccc1-c1nnc2ccc(-c3ccc(C)c(N)c3)cn12 [Example 91, 6-(3-Amino-4-methylphenyl)-3-(4-methyl-2-methoxyphenyl)-[1,2,4]triazolo[4,3-a]pyridine] | 23 nM | 31 nM | 39 nM | 13 nM | 42 nM
11 | COc1ccccc1-c1nnc2ccc(-c3ccc(N)cc3)cn12 [Example 47, 6-(4-Aminophenyl)-3-(2-methoxyphenyl)-[1,2,4]triazolo[4,3-a]pyridine hydrochloride] |  | 189 nM | 717 nM | 365 nM | 1050 nM
12 | COc1ccc(-c2ccc3nnc(-c4ccccc4OC)n3c2)c(C)c1 [Example 8, 6-(4-Methoxy-2-methylphenyl)-3-(2-methoxyphenyl)-[1,2,4]triazolo[4,3-a]pyridine] |  | 103 nM | 55 nM | 24 nM | 91 nM
13 | COc1ccc(-c2ccc3nnc(-c4cccnc4Cl)n3c2)cc1 [Example 85, 3-(2-Chloropyridin-3-yl)-6-(4-methoxyphenyl)-[1,2,4]triazolo[4,3-a]pyridine] |  | 4340 nM | 3870 nM | 1890 nM | > 10000 nM
14 | COc1ccccc1-c1nnc2ccc(-c3ccc(O)cc3)cn12 [Example 13, 6-(4-Hydroxyphenyl)-3-(2-methoxyphenyl)-[1,2,4]triazolo[4,3-a]pyridine] |  | 660 nM | 1280 nM | 1010 nM | 2350 nM
15 | COc1ccccc1-c1nnc2ccc(-c3ccc(C)cc3F)cn12 [Example 4, 6-(2-Fluoro-4-methylphenyl)-3-(2-methoxyphenyl)-[1,2,4]triazolo[4,3-a]pyridine] |  | 326 nM | 246 nM | 80 nM | 276 nM
16 | COc1ccc(-c2ccc3nnc(-c4cccnc4OC)n3c2)cc1 [Example 86, 6-(4-Methoxyphenyl)-3-(2-methoxypyridin-3-yl)-[1,2,4]triazolo[4,3-a]pyridine] |  | 40 nM | 58 nM | 32 nM | 41 nM
17 | COc1cc(-c2ccc3nnc(-c4ccccc4OC)n3c2)ccc1C [Example 28, 6-(3-Methoxy-4-methylphenyl)-3-(2-methoxyphenyl)-[1,2,4]triazolo[4,3-a]pyridine] |  | 495 nM | 448 nM | 178 nM | 886 nM
18 | COc1ccc(-c2ccc3nnc(-c4ccccc4OC(F)(F)F)n3c2)cc1 [Example 67, 6-(4-Methoxyphenyl)-3-(2-trifluoromethoxyphenyl)-[1,2,4]triazolo[4,3-a]pyridine] |  | 328 nM | 910 nM | 105 nM | 471 nM
19 | COc1ccc(-c2ccc3nnc(-c4ccc(F)cc4OC)n3c2)cc1 [Example 58, 3-(4-Fluoro-2-methoxyphenyl)-6-(4-methoxyphenyl)-[1,2,4]triazolo[4,3-a]pyridine] |  | 54 nM | 35 nM | 17 nM | 59 nM
20 | COc1ccccc1-c1nnc2ccc(-c3ccc([N+](=O)[O-])c(OC)c3)cn12 [Example 21, 6-(3-Methoxy-4-nitrophenyl)-3-(2-methoxyphenyl)-[1,2,4]triazolo[4,3-a]pyridine] |  | > 10000 nM | 4250 nM | > 10000 nM | > 10000 nM
21 | COc1cc(-c2ccc3nnc(-c4ccccc4OC)n3c2)ccc1OCc1ccccc1 [Example 9, 6-(4-Benzyloxy-3-methoxyphenyl)-3-(2-methoxyphenyl)-[1,2,4]triazolo[4,3-a]pyridine] |  | > 10000 nM | > 10000 nM | > 10000 nM | > 10000 nM
22 | COc1ccccc1-c1nnc2ccc(-c3ccc(C)c(C)c3)cn12 [Example 32, 6-(3,4-Dimethylphenyl)-3-(2-methoxyphenyl)-[1,2,4]triazolo[4,3-a]pyridine] |  | 148 nM | 83 nM | 39 nM | 157 nM
23 | COc1ccccc1-c1nnc2ccc(-c3ccc(C)c(Cl)c3)cn12 [Example 19, 6-(3-Chloro-4-methylphenyl)-3-(2-methoxyphenyl)-[1,2,4]triazolo[4,3-a]pyridine] |  | 169 nM | 157 nM | 68 nM | 221 nM
